# Reference: patent US11369556B2, “Oral care composition comprising rottlerin” (Colgate-Palmolive Company, priority 2017, dated 2022)
# Tests used:
# S. oralis [1] = assay: 10-hour bacterial growth, optical density readings, S. oralis; format: cell-based, Streptococcus oralis
# Description: (§1) In particular, Tables 1-3 illustrate 10-hour bacterial growth in terms of optical density (OD) readings taken at one-hour intervals, where the density readings represent the amount of bacteria present.
# (§2) The bacterial cultures were grown overnight and standardized to a 0.05 OD reading, after which, different concentrations of rottlerin were added, and the bacterial growth was monitored hourly for 10 hours using a plate reader.
# Table 1 illustrates three examples of S. oralis bacterial growth: one showing the untreated growth of S. oralis, another showing the growth of S. oralis after treatment with 10 μM of rottlerin, and a final example showing the growth of S. oralis after treatment with 20 μM of rottlerin.
# A. viscosus = assay: 10-hour bacterial growth, optical density readings, A. viscosus; format: cell-based, Actinomyces viscosus
# Description: as §1, §2
# Table 2 illustrates three examples of A. viscosus bacterial growth: an untreated A. viscosus growth, a growth of A. viscosus after treatment with 10 μM of rottlerin, and a growth of A. viscosus after treatment with 20 μM of rottlerin.
# [2] = test system: mixed species, equal amounts of S. oralis, S. mutans, and A. viscosus; assay: 10-hour bacterial growth, optical density readings, mixed species; format: cell-based
# Description: as §1, §2
# Finally, Table 3 illustrates three examples of mixed species bacterial growth, including equal amounts of S. oralis, S. mutans, and A. viscosus species: an untreated growth, a growth of the mixed species after treatment with 10 μM of rottlerin, and a growth of the mixed species after treatment with 20 μM of rottlerin.
# S. oralis [3] = assay: Metabolic activity of S. oralis, ATP assay; format: cell-based, Streptococcus oralis; details: for Reduction of Metabolic Activity: incubated 1 hour at 37° C.
# Description: (§3) S. ovalis is a representative streptococcus species of bacteria that colonize the oral cavity and may serve as a representative species for the efficacy of antimicrobial agents. Table 4 (below) illustrates the effects of rottlerin on the metabolic activity and cell viability of S. ovalis when treated with various concentrations of rottlerin. The metabolic activity of the S. ovalis bacteria was measured through ATP assays, and the cell viability was measured using a resazurin assay.
# Similarly, the metabolic activity was measured through an ATP assay as follows: A culture of S. oralis bacteria was grown and standardized to a 610˜0.6 OD. 500 μl of the S. ovalis bacteria culture was then transferred to a clean and sterile micro-centrifuge tube and treated as above. Three 100 μl samples from each tube were then individually plated in individual wells of a 96-well plate and 100 μl of Bactitre glow ATP reagent was added. The metabolic activity of the S. oralis bacteria was then monitored by measuring luminescence, with an increase in luminescence correlating with higher metabolic cells.
# S. oralis [4] = assay: Cell viability of S. oralis, resazurin assay; format: cell-based, Streptococcus oralis; details: for Cell Viability: incubated 1 hour at 37° C.
# Description: as §3
# In particular, the cell viability of S. oralis was measured through a resazurin assay as follows: A culture of S. oralis bacteria was grown and standardized to a 610˜0.6 OD. 500 μl of the S. oralis bacteria culture was then transferred to a clean and sterile micro-centrifuge tube. The tube was then centrifuged at greater than 15,000 g for 10 minutes to pellet the bacteria. The tube samples were then treated with different amounts of rottlerin and resuspended in 1 ml of 0.25× Trypticase soy broth (TSB) in water. Control and dead samples were created by resuspending the pellet bacteria in sterile media or 100% ethanol, and without adding rottlerin. The tubes were then inverted 3 times for mixing and incubated at 37° C. for 1 hour. Afterwards, 1 ml of D/E neutralizing broth was added to each tube and the samples in the tubes were then washed and stained. The tubes were then centrifuged at greater than 15,000 g for 10 minutes to pellet the bacteria again. The supernate was then removed and the bacteria was resuspended in 1 ml of sterile 0.25× TSB wash. Three 100 μl samples from each tube were then each individually plated in individual wells of a 96-well plate. The samples were then prepared for a standard analytic curve by combining fixed ratios of the live and dead control samples. 100 μl of the resazurin dye solution were then added to each well, and the 96-well plate was then incubated at 37° C. until the live control samples turned the appropriate pink color. A fluorescence plate reader was then used to read the fluorescence of the resazurin dye at 560 nm excitation/590 nm emission, and a percentage of live and dead cells was then calculated.
# [5] = low concentrations of rottlerin
smiles,measurement,setting,value
"CC(=O)c1c(O)c(C)c(O)c(Cc2c(O)c3c(c(C(=O)/C=C/c4ccccc4)c2O)OC(C)(C)C=C3)c1O [rottlerin, 5,7-dihydro-2,2-dimethyl-6-(2,4,6-trihydroxy-3-methyl-5-acetylbenzyl)-8-cinnamoyl-1,2-chromene]",S. oralis growth (OD),"S. oralis [1]; 10 μM, exposure time 1 hour",0.10 OD
same,S. oralis growth (OD),"S. oralis [1]; 10 μM, exposure time 2 hours",0.095 OD
same,S. oralis growth (OD),"S. oralis [1]; 10 μM, exposure time 3 hours",0.091 OD
same,S. oralis growth (OD),"S. oralis [1]; 10 μM, exposure time 4 hours",0.088 OD
same,S. oralis growth (OD),"S. oralis [1]; 10 μM, exposure time 5 hours",0.089 OD
same,S. oralis growth (OD),"S. oralis [1]; 10 μM, exposure time 6 hours",0.091 OD
same,S. oralis growth (OD),"S. oralis [1]; 10 μM, exposure time 7 hours",0.088 OD
same,S. oralis growth (OD),"S. oralis [1]; 10 μM, exposure time 8 hours",0.075 OD
same,S. oralis growth (OD),"S. oralis [1]; 10 μM, exposure time 9 hours",0.075 OD
same,S. oralis growth (OD),"S. oralis [1]; 10 μM, exposure time 10 hours",0.074 OD
same,S. oralis growth (OD),"S. oralis [1]; 20 μM, exposure time 1 hour",0.098 OD
same,S. oralis growth (OD),"S. oralis [1]; 20 μM, exposure time 2 hours",0.099 OD
same,S. oralis growth (OD),"S. oralis [1]; 20 μM, exposure time 3 hours",0.089 OD
same,S. oralis growth (OD),"S. oralis [1]; 20 μM, exposure time 4 hours",0.088 OD
same,S. oralis growth (OD),"S. oralis [1]; 20 μM, exposure time 5 hours",0.091 OD
same,S. oralis growth (OD),"S. oralis [1]; 20 μM, exposure time 6 hours",0.090 OD
same,S. oralis growth (OD),"S. oralis [1]; 20 μM, exposure time 7 hours",0.090 OD
same,S. oralis growth (OD),"S. oralis [1]; 20 μM, exposure time 8 hours",0.081 OD
same,S. oralis growth (OD),"S. oralis [1]; 20 μM, exposure time 9 hours",0.080 OD
same,S. oralis growth (OD),"S. oralis [1]; 20 μM, exposure time 10 hours",0.079 OD
same,growth of bacteria compared to an untreated control,"S. oralis [1]; S. oralis, low concentrations of rottlerin (Table 1)",significantly reduced
same,A. viscosus growth (OD),"A. viscosus; 10 μM, exposure time 1 hour",0.105 OD
same,A. viscosus growth (OD),"A. viscosus; 10 μM, exposure time 2 hours",0.112 OD
same,A. viscosus growth (OD),"A. viscosus; 10 μM, exposure time 3 hours",0.104 OD
same,A. viscosus growth (OD),"A. viscosus; 10 μM, exposure time 4 hours",0.093 OD
same,A. viscosus growth (OD),"A. viscosus; 10 μM, exposure time 5 hours",0.091 OD
same,A. viscosus growth (OD),"A. viscosus; 10 μM, exposure time 6 hours",0.087 OD
same,A. viscosus growth (OD),"A. viscosus; 10 μM, exposure time 7 hours",0.084 OD
same,A. viscosus growth (OD),"A. viscosus; 10 μM, exposure time 8 hours",0.085 OD
same,A. viscosus growth (OD),"A. viscosus; 10 μM, exposure time 9 hours",0.082 OD
same,A. viscosus growth (OD),"A. viscosus; 10 μM, exposure time 10 hours",0.079 OD
same,A. viscosus growth (OD),"A. viscosus; 20 μM, exposure time 1 hour",0.105 OD
same,A. viscosus growth (OD),"A. viscosus; 20 μM, exposure time 2 hours",0.122 OD
same,A. viscosus growth (OD),"A. viscosus; 20 μM, exposure time 3 hours",0.121 OD
same,A. viscosus growth (OD),"A. viscosus; 20 μM, exposure time 4 hours",0.115 OD
same,A. viscosus growth (OD),"A. viscosus; 20 μM, exposure time 5 hours",0.113 OD
same,A. viscosus growth (OD),"A. viscosus; 20 μM, exposure time 6 hours",0.106 OD
same,A. viscosus growth (OD),"A. viscosus; 20 μM, exposure time 7 hours",0.1 OD
same,A. viscosus growth (OD),"A. viscosus; 20 μM, exposure time 8 hours",0.097 OD
same,A. viscosus growth (OD),"A. viscosus; 20 μM, exposure time 9 hours",0.091 OD
same,A. viscosus growth (OD),"A. viscosus; 20 μM, exposure time 10 hours",0.086 OD
same,growth of bacteria compared to an untreated control,"A. viscosus; A. viscosus, low concentrations of rottlerin (Table 2)",significantly reduced
same,Mixed species growth (OD),"[2]; 10 μM, exposure time 1 hour",0.088 OD
same,Mixed species growth (OD),"[2]; 10 μM, exposure time 3 hours",0.083 OD
same,Mixed species growth (OD),"[2]; 10 μM, exposure time 4 hours",0.081 OD
same,Mixed species growth (OD),"[2]; 10 μM, exposure time 5 hours",0.082 OD
same,Mixed species growth (OD),"[2]; 10 μM, exposure time 6 hours",0.079 OD
same,Mixed species growth (OD),"[2]; 10 μM, exposure time 7 hours",0.076 OD
same,Mixed species growth (OD),"[2]; 10 μM, exposure time 8 hours",0.073 OD
same,Mixed species growth (OD),"[2]; 10 μM, exposure time 9 hours (head of second time column, c2)",0.085 OD
same,Mixed species growth (OD),"[2]; 10 μM, exposure time 10 hours",0.070 OD
same,Mixed species growth (OD),"[2]; 20 μM, exposure time 1 hour",0.089 OD
same,Mixed species growth (OD),"[2]; 20 μM, exposure time 3 hours",0.090 OD
same,Mixed species growth (OD),"[2]; 20 μM, exposure time 4 hours",0.089 OD
same,Mixed species growth (OD),"[2]; 20 μM, exposure time 5 hours",0.088 OD
same,Mixed species growth (OD),"[2]; 20 μM, exposure time 6 hours",0.085 OD
same,Mixed species growth (OD),"[2]; 20 μM, exposure time 7 hours",0.082 OD
same,Mixed species growth (OD),"[2]; 20 μM, exposure time 8 hours",0.076 OD
same,Mixed species growth (OD),"[2]; 20 μM, exposure time 9 hours (head of second time column, c2)",0.091 OD
same,Mixed species growth (OD),"[2]; 20 μM, exposure time 10 hours",0.071 OD
same,growth of bacteria compared to an untreated control,"[2]; mixed species, low concentrations of rottlerin (Table 3)",significantly reduced
same,Reduction of Metabolic Activity,S. oralis [3]; Rottlerin Amt. 0.25 μg,40%
same,Reduction of Metabolic Activity,S. oralis [3]; Rottlerin Amt. 1.25 μg,51%
same,Reduction of Metabolic Activity,S. oralis [3]; Rottlerin Amt. 2.5 μg,60%
same,Reduction of Metabolic Activity,S. oralis [3]; Rottlerin Amt. 5 μg,61%
same,Reduction of Metabolic Activity,S. oralis [3]; Rottlerin Amt. 10 μg,72%
same,Reduction of Metabolic Activity,S. oralis [3]; Rottlerin Amt. 12.5 μg,75%
same,metabolic activity of S. oralis,S. oralis [3]; [5],significantly negatively affected
same,Cell Viability,S. oralis [4]; Rottlerin Amt. 0.25 μg,79.5%
same,Cell Viability,S. oralis [4]; Rottlerin Amt. 1.25 μg,61%
same,Cell Viability,S. oralis [4]; Rottlerin Amt. 2.5 μg,49.4%
same,Cell Viability,S. oralis [4]; Rottlerin Amt. 5 μg,41.1%
same,Cell Viability,S. oralis [4]; Rottlerin Amt. 10 μg,25.9%
same,Cell Viability,S. oralis [4]; Rottlerin Amt. 12.5 μg,19.9%
same,cell viability of S. oralis,S. oralis [4]; [5],significantly negatively affected
